Test results as given in patent publication US20260042764A1, “COMPOSITIONS AND METHODS FOR INHIBITION OF KRAS” (TheRas, Inc., priority 2022, published 2026).

Experiments:
[1] = test system: SW620 cells (KRAS G12V); test: Cell-based pERK HTRF assay in SW620 cell (Biological Example 4); settings: pERK HTRF
Summary of the method: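 SW620 cells were treated for 4 h with compound in a 9-point half-log series from 1 μM top (0.25% DMSO), then lysed. Phospho-ERK was detected by HTRF with d2 and Eu cryptate antibodies after 4–24 h at room temperature, read at 615 nm emission.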

[2] = target: T1, Avi-KRAS G12V (1-169) GppNHp/RAF1 RBD-3xFLAG (52-151) (Homo sapiens, UniProt P01116, G12V); test: Raf1-KRAS G12V-GppNHP disruption HTRF assay (Biological Example 1); type: binding
T1 construct: Avi-KRAS G12V (1-169)
Summary of the method: (§1)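 First, protein mix in Tris pH 7.5 buffer with NaCl, MgCl2, BSA, Tween and 10% DMSO is incubated 1 h at room temperature. Next, reagent mix is added and incubated a further 1 h at room temperature. Finally, HTRF is read and activity normalized to DMSO.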

[3] = target: T2, Avi-KRAS G12R (1-169) GppNHp/RAF1 RBD-3xFLAG (52-151) (Homo sapiens, UniProt P01116, G12R); test: Raf1-KRAS G12R-GppNHP disruption HTRF assay (Biological Example 1); type: binding
T2 construct: Avi-KRAS G12R (1-169)
Summary of the method: as §1

[4] = target: T3, Avi-KRAS G12D (1-169) GppNHp/RAF1 RBD-3xFLAG (52-151) (Homo sapiens, UniProt P01116, G12D); test: Raf1-KRAS G12D-GppNHP disruption HTRF assay (Biological Example 1); type: binding
T3 construct: Avi-KRAS G12D (1-169)
Summary of the method: as §1

[5] = test system: GP2d cells (KRAS G12D); test: Cell-based pERK HTRF assay in GP2d cell (Biological Example 2); settings: GP2d (KRAS G12D) cells, pERK HTRF
Summary of the method: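 Treatment with test compounds lasted one hour in DMEM containing 10% FBS, with DMSO held at 0.25%. Dilution series: 9 points, half-log spacing, highest 1 μM or 100 nM. Lysates were incubated 4–24 h at room temperature with antibody mix, then HTRF was read at 320 nm excitation.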

[6] = target: T4, Avi-KRAS WT (1-169) GppNHp/RAF1 RBD-3xFLAG (52-151) (Homo sapiens, UniProt P01116); test: Raf1-KRAS WT-GppNHP disruption HTRF assay (Biological Example 1); type: binding
T4 construct: Avi-KRAS WT (1-169)
Summary of the method: as §1

[7] = Homo sapiens, SW-620, SW620 (KRAS G12V) cells, class symbols
[8] = KRAS G12V, GppNHp-loaded, class symbols
[9] = KRAS G12R, GppNHp-loaded, class symbols
[10] = KRAS G12D, GppNHp-loaded, class symbols
[11] = KRAS WT, GppNHp-loaded, class symbols
[12] = Homo sapiens, SW-620, SW620 (KRAS G12V) cells

T3 sequence (P01116 1-169 isoform P01116-2 G12D): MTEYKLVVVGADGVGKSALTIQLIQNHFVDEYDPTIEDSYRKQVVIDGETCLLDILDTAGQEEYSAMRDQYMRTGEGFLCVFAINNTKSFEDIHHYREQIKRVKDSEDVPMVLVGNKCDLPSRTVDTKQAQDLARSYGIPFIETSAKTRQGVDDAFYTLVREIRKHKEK
T2 sequence (P01116 1-169 isoform P01116-2 G12R): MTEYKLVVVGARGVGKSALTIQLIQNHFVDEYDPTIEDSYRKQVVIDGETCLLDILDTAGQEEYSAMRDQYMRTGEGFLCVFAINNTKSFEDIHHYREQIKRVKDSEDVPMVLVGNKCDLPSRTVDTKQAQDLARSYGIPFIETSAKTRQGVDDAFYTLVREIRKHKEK
T4 sequence (P01116 1-169 isoform P01116-2): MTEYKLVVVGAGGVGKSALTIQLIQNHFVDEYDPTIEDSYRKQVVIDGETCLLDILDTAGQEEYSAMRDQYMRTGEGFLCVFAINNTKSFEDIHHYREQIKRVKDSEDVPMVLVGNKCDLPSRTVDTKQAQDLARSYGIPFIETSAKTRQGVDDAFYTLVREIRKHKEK
T1 sequence (P01116 1-169 isoform P01116-2 G12V): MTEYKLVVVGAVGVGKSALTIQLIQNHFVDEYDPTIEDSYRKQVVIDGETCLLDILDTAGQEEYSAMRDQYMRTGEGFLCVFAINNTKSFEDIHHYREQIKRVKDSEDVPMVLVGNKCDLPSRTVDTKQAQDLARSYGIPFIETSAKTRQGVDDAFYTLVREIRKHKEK

SMILES | IC50 [1, 7] [µM] | IC50 [2, 8] [µM] | IC50 [3, 9] [µM] | IC50 [4, 10] [µM] | IC50 ([5]; GP2d, class symbols) [µM] | IC50 [6, 11] [µM] | IC50 [1, 12] [µM] | IC50 ([2]; KRAS G12V-GppNHp/RAF1 RBD HTRF) [µM] | IC50 ([3]; KRAS G12R-GppNHp/RAF1 RBD HTRF) [µM] | IC50 ([4]; KRAS G12D-GppNHp/RAF1 RBD HTRF) [µM] | IC50 ([5]; GP2d) [µM] | IC50 ([6]; KRAS WT-GppNHp/RAF1 RBD HTRF) [µM] | further results
CCN(c1nc(OC[C@@]23CCCN2C[C@H](F)C3)nc2c(F)c(-c3ccc(F)c4sc(N)c(C#N)c34)c(C(F)(F)F)cc12)[C@H]1CCN(C(=O)N2CC(OC(F)F)C2)C1 (atropisomer, axis not shown) [Compound 794] | < 0.1 | < 0.1 | < 0.1 | < 0.1 | < 0.1 | < 0.1 |  |  |  |  |  |  | 
C[C@H]1CS(=O)(=O)CCN1c1nc(OC[C@@]23CCCN2C[C@H](F)C3)nc2c(F)c(-c3ccc(F)c4sc(N)c(C#N)c34)c(C(F)(F)F)cc12 [Compound 302] |  |  |  |  |  |  | < 0.1 | 1 to 10 | 0.1 to 1 | 0.1 to 1 | < 0.1 | 0.1 to 1 | 
N#Cc1c(N)sc2c(F)ccc(-c3c(C(F)(F)F)cc4c(N5CCCN6C(=O)CC[C@H]6C5)nc(OC[C@@]56CCCN5C[C@H](F)C6)nc4c3F)c12 [Compound 487] |  |  |  |  |  |  | < 0.1 | 1 to 10 | 1 to 10 | 0.1 to 1 | < 0.1 | 0.1 to 1 | 
CCN(c1nc(OC[C@@]23CCCN2C[C@H](F)C3)nc2c(F)c(-c3ccc(F)c4sc(N)c(C#N)c34)c(C(F)(F)F)cc12)[C@@H]1C[C@@H](C)N(C(=O)C2COC2)C1 (atropisomer, axis not shown) [Compound 629] | < 0.1 | 0.1 to 1 | 0.1 to 1 | 0.1 to 1 | < 0.1 | 0.1 to 1 |  |  |  |  |  |  | 
C[C@@H]1[C@H](N(C)c2nc(OC[C@@]34CCCN3C[C@H](F)C4)nc3c(F)c(-c4ccc(F)c5sc(N)c(C#N)c45)c(Cl)cc23)CCN1C(=O)C(F)F [Compound 408] |  |  |  |  |  |  | 0.1 to 1 | 1 to 10 | 1 to 10 | 0.1 to 1 | < 0.1 | 0.1 to 1 | 
N#Cc1c(N)sc2c(F)ccc(-c3c(C(F)(F)F)cc4c(N5C[C@H]6C[C@H](O)[C@@H]5C6)nc(OC[C@@]56CCCN5C[C@H](F)C6)nc4c3F)c12 [Compound 361] |  |  |  |  |  |  | < 0.1 | 1 to 10 | 0.1 to 1 | 0.1 to 1 | < 0.1 | 0.1 to 1 | 
CN(C)C(=O)c1nc2c(s1)CN(c1nc(OCC34CCCN3CC(F)C4)nc3c(F)c(-c4ccc(F)c5sc(N)c(C#N)c45)c(C(F)(F)F)cc13)CC2 (stereo not drawn) [Compound 404] |  |  |  |  |  |  | < 0.1 | 1 to 10 | > 10 | 1 to 10 | < 0.1 | < 0.1 | 
CC(=O)N1C[C@H](N(C)c2nc(OC[C@@]34CCCN3C[C@H](F)C4)nc3c(F)c(-c4ccc(F)c5sc(N)c(C#N)c45)c(C(F)(F)F)cc23)C[C@H]1C [Compound 321] |  |  |  |  |  |  | < 0.1 | 0.1 to 1 | 0.1 to 1 | 0.1 to 1 | < 0.1 | 0.1 to 1 | 
N#Cc1c(N)sc2c(F)ccc(-c3c(C(F)(F)F)cc4c(N5C[C@@H]6C[C@H]5CS6(=O)=O)nc(OC[C@@]56CCCN5C[C@H](F)C6)nc4c3F)c12 [Compound 319] |  |  |  |  |  |  | 0.1 to 1 | 1 to 10 | 1 to 10 | 0.1 to 1 | 0.1 to 1 | 1 to 10 | 
CN(C)C(=O)c1cn2c(n1)CN(c1nc(OC[C@@]34CCCN3C[C@H](F)C4)nc3c(F)c(-c4ccc(F)c5sc(N)c(C#N)c45)c(C(F)(F)F)cc13)CC2 [Compound 419] |  |  |  |  |  |  | < 0.1 | 0.1 to 1 | 0.1 to 1 | 0.1 to 1 | < 0.1 | 0.1 to 1 | 
N#Cc1c(N)sc2c(F)ccc(-c3c(C(F)(F)F)cc4c(N(Cc5cccnc5N)C5CC5)nc(OC[C@@]56CCCN5C[C@H](F)C6)nc4c3F)c12 (atropisomer, axis not shown) [Compound 602] | < 0.1 | 1 to 10 | 1 to 10 | 1 to 10 | < 0.1 | 1 to 10 |  |  |  |  |  |  | 
CCOC(=O)N1CC[C@H](N(CC)c2nc(OC[C@@]34CCCN3C[C@H](F)C4)nc3c(F)c(-c4ccc(F)c5sc(N)c(C#N)c45)c(C(F)(F)F)cc23)C1 (atropisomer, axis not shown) [Compound 686] | < 0.1 | < 0.1 | < 0.1 | < 0.1 | < 0.1 | 0.1 to 1 |  |  |  |  |  |  | 
CCN(c1nc(OC[C@@]23CCCN2C[C@H](F)C3)nc2c(F)c(-c3ccc(F)c4sc(N)c(C#N)c34)c(C(F)(F)F)cc12)[C@H]1CCN(C(=O)c2cn(C)nn2)C1 (atropisomer, axis not shown) [Compound 725] | < 0.1 | < 0.1 | < 0.1 | < 0.1 | < 0.1 | < 0.1 |  |  |  |  |  |  | 
COC(=O)N1CC[C@@H](N(C)c2nc(OC[C@@]34CCCN3C[C@H](F)C4)nc3c(F)c(-c4ccc(F)c5sc(N)c(C#N)c45)c(C(F)(F)F)cc23)[C@H]1C [Compound 410] |  |  |  |  |  |  | < 0.1 | 0.1 to 1 | 0.1 to 1 | 0.1 to 1 | < 0.1 | 0.1 to 1 | 
N#Cc1c(N)sc2c(F)ccc(-c3c(C(F)(F)F)cc4c(N5CCn6nc(C(=O)N7CCCC7)cc6C5)nc(OCC56CCCN5CC(F)C6)nc4c3F)c12 (stereo not drawn) [Compound 627] | < 0.1 | < 0.1 | < 0.1 | < 0.1 | < 0.1 | 0.1 to 1 |  |  |  |  |  |  | 
C[C@@H]1C[C@H](N(C)c2nc(OC[C@@]34CCCN3C[C@H](F)C4)nc3c(F)c(-c4ccc(F)c5sc(N)c(C#N)c45)c(C(F)(F)F)cc23)CN1C(=O)C1CC1 [Compound 443] |  |  |  |  |  |  | < 0.1 | 0.1 to 1 | 0.1 to 1 | 0.1 to 1 | < 0.1 | 0.1 to 1 | 
N#Cc1c(N)sc2c(F)ccc(-c3c(C(F)(F)F)cc4c(N5CCCC6(CC(O)C6)C5)nc(OC[C@@]56CCCN5C[C@H](F)C6)nc4c3F)c12 (stereo partly drawn) [Compound 231] |  |  |  |  |  |  |  |  |  |  |  |  | IC50 ([1]; SW620 (KRAS G12V) cells): 0.1 to 1 µM; IC50 ([2]; KRAS G12V, GppNHp-loaded, Table 11): > 10 µM; IC50 ([3]; KRAS G12R, GppNHp-loaded, Table 11): 1 to 10 µM; IC50 ([4]; KRAS G12D, GppNHp-loaded, Table 11): 1 to 10 µM; IC50 [5]: 0.1 to 1 µM; IC50 ([6]; KRAS WT, GppNHp-loaded, Table 11): 1 to 10 µM
N#Cc1c(N)sc2c(F)ccc(-c3c(C(F)(F)F)cc4c(N5C[C@H]6C[C@@H]5CO6)nc(OC[C@]56C[C@@H](F)CN5CC5(CC5)C6)nc4c3F)c12 [Compound 595] | < 0.1 | 1 to 10 | 1 to 10 | 1 to 10 | < 0.1 | 1 to 10 |  |  |  |  |  |  | 
CCN(c1nc(OC[C@@]23CCCN2C[C@H](F)C3)nc2c(F)c(-c3ccc(F)c4sc(N)c(C#N)c34)c(C(F)(F)F)cc12)[C@@H]1CCN(C(=O)[C@@H]2CC2(F)F)[C@@H]1C (atropisomer, axis not shown) [Compound 808] | < 0.1 | < 0.1 | < 0.1 | < 0.1 | < 0.1 | < 0.1 |  |  |  |  |  |  | 
CCN(c1nc(OC[C@@]23CCCN2C[C@H](F)C3)nc2c(F)c(-c3ccc(F)c4sc(N)c(C#N)c34)c(C(F)(F)F)cc12)[C@H]1CCN(C(=O)[C@H](C)OC)[C@@H]1C (atropisomer, axis not shown) [Compound 781] | < 0.1 | 0.1 to 1 | < 0.1 | < 0.1 | < 0.1 | < 0.1 |  |  |  |  |  |  | 
CCN(c1nc(OC[C@@]23CCCN2C[C@H](F)C3)nc2c(F)c(-c3ccc(F)c4sc(N)c(C#N)c34)c(C(F)(F)F)cc12)[C@H]1CCN(C(=O)OC2COC2)[C@@H]1C (atropisomer, axis not shown) [Compound 809] | < 0.1 | < 0.1 | < 0.1 | < 0.1 | < 0.1 | < 0.1 |  |  |  |  |  |  | 
CCN(c1nc(OC[C@@]23CCCN2C[C@H](F)C3)nc2c(F)c(-c3ccc(F)c4sc(N)c(C#N)c34)c(C(F)(F)F)cc12)[C@H]1CCN(C(=O)N2CC3(CC3)C2)C1 (atropisomer, axis not shown) [Compound 793] | < 0.1 | < 0.1 | < 0.1 | < 0.1 | < 0.1 | < 0.1 |  |  |  |  |  |  | 
